The target in this assay is human Kv1.3 (hKv1.3) channels (Homo sapiens (Human), UniProt P22001). Put plainly: Electrophysiological (whole-cell patch clamp) determination of inhibitory activity on Kv1.3 channels. It counts as cell-based. To be noted: HEK293T cells expressing hKv1.3; for IC50: Hill fit of peak current inhibition. The procedure: Test Example 1: Determination of Inhibitory Activity of Compounds on Kv1.3 (hKv1.3) Channels
Electrophysiological Testing
Potassium currents were measured using HEK293T cells expressing human Kv1.3 (hKv1.3) channels.
Prior to the start of electrophysiological experiments, Kv1.3 cell lines should be maintained within 70% of the maximum density in the logarithmic growth phase. All reagents should be pre-warmed to 37° C. before use. • 1) Aspirate the spent medium from the 6 cm culture dish. • 2) Add 1 mL of PBS, gently rock the dish to rinse the bottom, and then remove the PBS. • 3) Add 1 mL of trypsin, and gently rock the dish to ensure the trypsin covers all the cells. • 4) Incubate at 37° C. for 2-3 minutes, and then gently pipette the cells to suspend the adherent cells. • 5) Transfer the cell suspension to a new centrifuge tube and centrifuge at 1000 rpm for 5 minutes. Adjust the cell concentration to 2×10^3 cells/mL, and then seed 300 μL of the cell suspension into each well of a 24-well plate containing cell climbing slides. Perform patch clamp experiments after the cells adhered properly.
The intracellular and extracellular solutions used were designed to mimic the cell physiological ionic composition.
Kv1.3 extracellular solution: 137 mM NaCl, 1 mM MgCl2·6H2O, 4 mM KCl, 1.8 mM CaCl2·2H2O, 10 mM D-Glucose, 10 mM HEPES, pH adjusted to 7.4 with NaOH.
Kv1.3 intracellular solution: 140 mM KCl, 10 mM EGTA, 5 mM MgCl2·6H2O, 10 mM HEPES, […], pH adjusted to 7.2 with KOH.
Test Compound Dissolution
• 1) The test compound was dissolved in DMSO to prepare a 30 mM stock solution. • 2) The stock solution of the test compound was serially diluted with DMSO to obtain secondary stock solutions at concentrations of 300 μM, 100 μM, 30 μM, 10 μM, and 3 μM. • 3) 10 μL of each secondary stock solution was diluted into 10 mL of extracellular solution to achieve final concentrations of 300 nM, 100 nM, 30 nM, 10 nM, and 3 nM for electrophysiological testing.
Kv1.3 potassium current data were collected and stored on a computer using Patchmaster software via an EPC-10 amplifier. • 1) The cell climbing slide was removed from the cell culture dish using forceps, immersed with extracellular solution, and placed into the bath chamber on the stage of an inverted microscope. • 2) Glass micropipettes were pulled using a P-1000 micropipette puller, filled one-third of their volume with intracellular solution, and then mounted onto an electrode holder. • 3) Using a motorized micromanipulator (Scientifica-Double 1U), the recording electrode was brought into contact with the cell surface. […] The positive pressure was removed, and a negative pressure of 0.5 cm H2O was applied. It was observed that the sealing resistance increased rapidly until it reached the gigaseal. When the sealing resistance between the recording electrode and the cell membrane was >1 GΩ, negative pressure was applied to rupture the membrane to form the whole-cell recording mode. After the ruptured membrane stabilized, the membrane capacitance (Cs) and series resistance (Rs) were compensated. • 4) Stimulation procedure: the cell was voltage-clamped at −80 mV, depolarized to 40 mV for a duration of 200 ms, and then repolarized to −80 mV. Currents were recorded every 10 s. • 5) Kv1.3 potassium channel currents were recorded at room temperature prior to drug application. After the control current value reached a steady state (indicated by overlapping of the four most consecutive current traces), cumulative drug application was performed. The negative control (0.1% DMSO) was applied first, followed by […] of the drugs.
Raw Kv1.3 current peak data were extracted from PatchMaster software. The current inhibition rate was calculated as follows: Peak current inhibition rate=((1−(Peak current compound)/(Peak current vehicle))). […]
Background: Patch clamp records ionic current or voltage across a cell membrane.

Chain of human Kv1.3 (hKv1.3) channels (P22001 whole entry): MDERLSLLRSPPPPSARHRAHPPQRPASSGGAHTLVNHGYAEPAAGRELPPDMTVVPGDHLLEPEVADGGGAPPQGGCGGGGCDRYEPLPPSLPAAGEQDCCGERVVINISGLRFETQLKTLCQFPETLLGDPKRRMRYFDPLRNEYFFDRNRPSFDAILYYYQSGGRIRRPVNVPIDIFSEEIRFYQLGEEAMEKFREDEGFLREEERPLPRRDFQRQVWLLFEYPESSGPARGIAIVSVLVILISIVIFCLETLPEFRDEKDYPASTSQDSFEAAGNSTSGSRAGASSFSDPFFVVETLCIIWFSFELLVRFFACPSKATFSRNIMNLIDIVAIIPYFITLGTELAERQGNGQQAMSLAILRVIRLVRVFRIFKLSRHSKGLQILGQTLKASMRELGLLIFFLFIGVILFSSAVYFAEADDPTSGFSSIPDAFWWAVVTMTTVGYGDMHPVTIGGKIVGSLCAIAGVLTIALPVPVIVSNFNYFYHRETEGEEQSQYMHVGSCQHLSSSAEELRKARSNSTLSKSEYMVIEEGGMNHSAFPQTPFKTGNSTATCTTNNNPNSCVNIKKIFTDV

The term IC50 denotes the point on the concentration scale where inhibition reaches its midpoint. A low value points to greater potency. `Oc1ccc(Cl)c(Cl)c1[C@@H]1CC(=S)N(c2cnn3c2CCC3)C1` [Compound 159-1, (S)-4-(2,3-Dichloro-6-hydroxyphenyl)-1-(5,6-dihydro-4H-pyrrolo[1,2-b]pyrazol-3-yl)pyrrolidine-2-thione] displayed an IC50 of 5 to 10 nM.
A word on the inhibition: it is how much of the control response was suppressed. Turning to `O=C1C[C@@H](c2c(O)ccc(Cl)c2Cl)CN1CCCO` [Compound W1, reference compound], the IC50 fell in the range of 10 to 30 nM. For the same compound, the inhibition at 0.01 µM (HEK-293T, compound concentration 10 nM, peak current inhibition, read-out: 10 nM inhibition rate (Kv1.3)) was 25 to 50%.
Turning to `NCCCN1C[C@H](c2c(O)ccc(Cl)c2Cl)CC1=O` [Compound W2, reference compound], the 50% inhibitory concentration (IC50) fell in the range of 10 to 30 nM.
On to “(S)-4-(2,3-Dichloro-6-hydroxyphenyl)-1-(1- methyl-1H-pyrazol-4-yl)pyrrolidine-2- thione [Compound 40-1]”, for which the IC50 was ≤ 5 nM.

Source of the values: patent US20260042734A1, “HETEROCYCLIC RING-SUBSTITUTED AROMATIC COMPOUND, PREPARATION METHOD THEREFOR, AND USE THEREOF” (SHANGHAI HENLIUS BIOTECH, INC., priority 2023, published 2026).
